Laboratory results from US9138495B2, “Conjugates and their uses in molecular imaging” (King's College London, priority 2010, dated 2015).

Experiments:
serum transferrin = biological target: T1, serum transferrin (Homo sapiens, UniProt P02787); assay: Labelling of CP256 with ^68Ga in serum (PD10, ethanol precipitation, ITLC); assay type: in vitro ADME
T1 construct: from tissue; host or cells: human blood serum
Procedure: Two different radiolabelling techniques were used. In method 1, 100 μl of chelator (CP-256, 2.35 mM, 1.17 mM, 589 μM, 117 μM, 23 μM and 11.7 μM; pH 7-7.5 in PBS/bicarbonate buffer) was mixed with 300 μl of human serum. After 10-15 minutes 20 μl of 68Ga eluate was added and the solution incubated at 37° C. in a plastic tube. In the second method, 20 μl of ^68Ga solution was added to the 300 μl of human blood serum. After 15-20 minutes 100 μl of chelator (Cp-256) was added. At each time point 50 μl of the incubation solution was applied to the top of the PD-10 column and eluted the column with PBS collecting 0.5 ml fractions. Fractions were counted in a gamma counter (Perkin Elmer wizard 31480 automatic gamma counter, 10 seconds per sample). The incubated solution were also analysed by ethanol precipitation, counting the pellet and supernatant after centrifugation to determine protein bound ^68Ga, and the centrifuged supernatants were analysed by ITLC-SG with 0.1 M sodium citrate as mobile phase. In these conditions “free” ^68Ga migrates with the solvent front (Rf=1) and ^68Ga-CP256 remains at the origin (Rf=0).

sialoadhesin = biological target: T2, sialoadhesin (Mus musculus, UniProt Q62230); assay type: in vivo; conditions: group 2: ^67Ga citrate 5 min after unconjugated SER4; wild type mice, 3 h
T2 construct: Sialoadhesin is found on the surface of macrophages; endogenous in cells; host or cells: macrophages (spleen, liver) of living wild-type C57Bl/6 mice
Procedure: CP256-SER4 was labelled with ^67Ga to give ^67Ga-CP256-SER4. Groups of wild type mice were injected with either directly labelled Ga-CP256-SER4 (group 1), or SER4 (unconjugated) followed 5 min later by ^67Ga citrate (group 2) or CP256-SER4 followed by ^67Ga citrate.
The same experiments were also performed using sialoadhesin knockout mice. All animals were killed after 3 h and biodistribution of radioactivity determined.
^67Gallium radiolabelling was performed by addition of 45 μL ^67Ga citrate (0.6-0.75 MBq) to 90 μL (90 μg) CP256-SER4. Radiolabelling was allowed to proceed for 10 min before dilution to 350 μL with phosphate buffered saline. Injections containing 25 μg of labelled antibody were drawn up. Analysis of the radiolabelled antibody was performed by size exclusion HPLC using 0.1 M phosphate buffer containing 2 mM EDTA as the mobile phase to ensure good radiolabelling had been achieved prior to injection into animals.
Groups of wild type mice (C57Bl/6, male 8-10 weeks, n=2 to 3 per group) were injected with either directly labelled ^67Ga-CP256-SER4 (group 1), or SER4 (unconjugated) followed 5 min later by ^67Ga citrate (group 2) or CP256-SER4 followed by ^67Ga citrate. […] All animals were killed after 3 h and biodistribution of radioactivity determined by explanting tissues and weighing and counting.

human apo-transferrin = biological target: T3, human apo-transferrin (Homo sapiens, UniProt P02787); assay: Tracer stability in apo-transferrin using 30 kDa MWCO filters; assay type: in vitro ADME; conditions: tracer radiolabelled at 100 μM ligand, 37° C.
T3 construct: purchased Sigma Aldrich T5391-10MG
Procedure: 50 mM TRIS-HCl buffer (pH 7.5) was prepared by dilution of a 1 M stock solution. Sodium bicarbonate was added to a concentration of 25 mM. A 2.5 mg/ml (32 μM) solution of apo-transferrin was prepared in this buffer. Solutions of all tracers were radiolabelled at a concentration of 100 μM. A 10 μM CP256 solution was also prepared. See table 9 for radiolabelling conditions. A 10 μl aliquot of each radiolabelled tracer was added to 30 μl of an appropriate buffer to neutralise the pH to between 7 and 7.5. This buffer was 2 M TRIS-HCl (pH 7.5) in the case of those tracers labelled in the acetate buffer. For preparations of ^67Ga-CP256 and ^67Ga-Citrate the buffer was PBS. Details can be seen in Table 9. Apo-transferrin solution (200 μl) in a plastic microcentrifuge tube was incubated at 37° C. in a metal heating block. To this was added 20 μl of each pH-neutralised tracer. 20 μl of each tracer was also incubated in a reference buffer (containing no apo-transferrin) of 50 mM TRIS-HCl containing 25 mM sodium bicarbonate. […] The filter section of the tube was removed and counted separately from the tube in a gamma counter. Percentage binding of the radioactivity to the MWCO filter was calculated using the following equation: Counts from filter section/Counts from filter section+counts from tube section×100 The analysis was done in triplicate after 4 hours for the apo-transferrin incubations. […]

T1 sequence (P02787 20-698): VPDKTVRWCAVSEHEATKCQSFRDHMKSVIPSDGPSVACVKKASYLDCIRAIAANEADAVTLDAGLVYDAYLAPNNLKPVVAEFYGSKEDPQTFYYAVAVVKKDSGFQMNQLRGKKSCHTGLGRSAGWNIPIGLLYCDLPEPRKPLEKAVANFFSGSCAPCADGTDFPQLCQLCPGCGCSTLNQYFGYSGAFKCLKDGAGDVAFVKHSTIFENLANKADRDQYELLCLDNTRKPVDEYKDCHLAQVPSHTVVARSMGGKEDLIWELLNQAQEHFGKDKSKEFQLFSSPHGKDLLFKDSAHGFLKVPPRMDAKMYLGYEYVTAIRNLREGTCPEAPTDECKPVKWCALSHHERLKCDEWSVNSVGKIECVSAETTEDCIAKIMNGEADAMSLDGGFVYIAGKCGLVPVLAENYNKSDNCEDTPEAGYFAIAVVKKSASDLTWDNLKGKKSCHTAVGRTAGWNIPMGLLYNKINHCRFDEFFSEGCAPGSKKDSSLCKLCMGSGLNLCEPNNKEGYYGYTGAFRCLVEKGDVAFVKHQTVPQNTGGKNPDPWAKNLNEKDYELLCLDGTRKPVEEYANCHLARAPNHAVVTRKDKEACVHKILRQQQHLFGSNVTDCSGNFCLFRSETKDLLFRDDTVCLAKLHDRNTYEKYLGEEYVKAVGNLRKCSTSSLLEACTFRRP
T3 sequence (P02787 20-698): as above
T2 sequence (Q62230 20-1695): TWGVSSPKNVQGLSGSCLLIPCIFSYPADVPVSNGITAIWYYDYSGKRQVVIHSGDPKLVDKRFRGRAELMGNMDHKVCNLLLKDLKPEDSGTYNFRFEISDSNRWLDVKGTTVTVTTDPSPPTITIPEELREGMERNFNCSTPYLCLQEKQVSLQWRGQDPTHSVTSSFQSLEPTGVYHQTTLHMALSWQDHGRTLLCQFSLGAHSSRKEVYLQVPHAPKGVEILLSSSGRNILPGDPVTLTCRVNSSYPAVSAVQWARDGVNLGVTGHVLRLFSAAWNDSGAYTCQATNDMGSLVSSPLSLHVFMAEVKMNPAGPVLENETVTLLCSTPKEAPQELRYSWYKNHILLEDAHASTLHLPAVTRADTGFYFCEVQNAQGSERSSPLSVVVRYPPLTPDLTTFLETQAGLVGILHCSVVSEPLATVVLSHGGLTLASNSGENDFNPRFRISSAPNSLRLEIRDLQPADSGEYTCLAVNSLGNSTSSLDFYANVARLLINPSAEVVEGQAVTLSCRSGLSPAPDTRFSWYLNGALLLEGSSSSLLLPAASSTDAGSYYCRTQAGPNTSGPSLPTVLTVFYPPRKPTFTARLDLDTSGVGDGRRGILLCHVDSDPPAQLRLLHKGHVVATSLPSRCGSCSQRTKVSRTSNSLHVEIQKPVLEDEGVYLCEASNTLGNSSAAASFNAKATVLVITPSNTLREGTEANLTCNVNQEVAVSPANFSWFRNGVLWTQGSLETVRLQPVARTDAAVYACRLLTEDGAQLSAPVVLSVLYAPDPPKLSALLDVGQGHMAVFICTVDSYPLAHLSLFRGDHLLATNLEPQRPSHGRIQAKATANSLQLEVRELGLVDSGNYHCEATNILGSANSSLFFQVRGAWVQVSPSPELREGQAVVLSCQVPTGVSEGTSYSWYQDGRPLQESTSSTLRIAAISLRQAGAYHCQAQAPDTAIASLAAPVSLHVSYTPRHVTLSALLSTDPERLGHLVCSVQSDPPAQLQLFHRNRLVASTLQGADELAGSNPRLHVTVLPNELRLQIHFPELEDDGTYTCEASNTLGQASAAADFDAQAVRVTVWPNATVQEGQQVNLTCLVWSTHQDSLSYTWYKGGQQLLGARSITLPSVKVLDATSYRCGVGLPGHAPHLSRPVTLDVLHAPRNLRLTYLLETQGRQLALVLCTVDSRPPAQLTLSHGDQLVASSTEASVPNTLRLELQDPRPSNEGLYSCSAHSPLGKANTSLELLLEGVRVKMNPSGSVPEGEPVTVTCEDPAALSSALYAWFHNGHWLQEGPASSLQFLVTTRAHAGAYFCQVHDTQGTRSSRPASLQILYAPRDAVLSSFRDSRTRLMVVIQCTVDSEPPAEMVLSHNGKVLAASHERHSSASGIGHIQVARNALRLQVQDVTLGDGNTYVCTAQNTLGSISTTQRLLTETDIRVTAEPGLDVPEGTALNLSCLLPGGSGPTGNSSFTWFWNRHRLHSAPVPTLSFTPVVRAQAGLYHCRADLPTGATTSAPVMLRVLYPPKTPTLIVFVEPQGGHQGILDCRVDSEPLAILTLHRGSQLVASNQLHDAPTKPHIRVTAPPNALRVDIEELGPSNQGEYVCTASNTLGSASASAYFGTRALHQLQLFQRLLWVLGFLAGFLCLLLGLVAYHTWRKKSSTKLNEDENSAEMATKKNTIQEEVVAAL

| SMILES | CP256 sample concentration giving a chromatogram similar to that of ^68Ga-CP256 in serum (serum transferrin; ^68Ga chloride added to mixture of CP256 and human serum) [µM] | chelation of ^68Ga in competition with serum transferrin (serum transferrin; ^68Ga chloride added to mixture of CP256 and human serum, 37° C.) | extraction of ^68Ga from ^68Ga-transferrin complex (serum transferrin; ^68Ga equilibrated first with serum, then CP256 added) | free ^68Ga (ITLC of supernatants) (serum transferrin; serum containing CP256) | protein bound ^68Ga (ethanol precipitation) (serum transferrin; serum containing CP256) | activity in circulating blood (sialoadhesin) [% ID/g] | % radioactivity bound to MWCO filter, in reference buffer (human apo-transferrin; 50 mM TRIS-HCl, 25 mM bicarbonate, no apo-transferrin) [%] | % radioactivity bound to MWCO filter, apo-transferrin incubation, after 4 hours (human apo-transferrin; apo-transferrin, 4 hours) [%] |
| --- | --- | --- | --- | --- | --- | --- | --- | --- |
| CC(=O)NC(CCC(=O)NCc1c(O)c(=O)cc(C)n1C)(CCC(=O)NCc1c(O)c(=O)cc(C)n1C)CCC(=O)NCc1c(O)c(=O)cc(C)n1C.Cl.Cl.Cl [CP256, 4-Acetylamino-4-{2-[(3-hydroxy-1,6-dimethyl-4-oxo-1,4-dihydro-pyridin-2-ylmethyl)-carbamoyl]-ethyl}-heptanedioic acid bis-[(3-hydroxy-1,6-dimethyl-4-oxo-1,4-dihydro-pyridin-2-ylmethyl)-amide]tris hydrochloride salt] | ≥ 23 | competes effectively with serum transferrin | able to extract ^68Ga from ^68Ga-transferrin complex | no detectable free ^68Ga | no measurable protein binding | – | – | – |
| O=C([O-])CC(O)(CC(=O)[O-])C(=O)[O-].[67Ga+3] [^67Ga-CITRATE] | – | – | – | – | – | 7 | 1.7 ± 0.5 | 73.0 ± 4.1 |
